Assay results: patent US12109218B2, “Compositions of grapiprant and methods for using the same” (ARATANA THERAPEUTICS, INC., priority 2014, dated 2024)

Experiments:
[1] = test system: cat serum proteins; assay: Binding to cat serum proteins by equilibrium dialysis (Example 11); details: equilibrium dialysis (RED device)
Protocol: Grapiprant concentrations of 200 and 1000 ng/mL in cat serum were subjected to equilibrium dialysis using a Rapid Equilibrium Dialysis (RED) device.

[2] = test system: complete Freund's adjuvant-induced chronic inflammatory pain response; details: cited from earlier work
[3] = 9-month oral toxicity study in dogs with 4-week recovery (Example 7)
Protocol: Four animals per sex were used in each dose group and two additional animals per sex in the 50 mg/kg dose group for recovery purposes. Clinical signs and food consumption were assessed daily. Bodyweight was recorded weekly. Ophthalmologic examination was performed on Weeks 20 and 38 of the dosing phase and Week 4 of the recovery phase. Electrocardiograms were recorded on Weeks 13, 26, and 38 of the dosing phase and Week 4 of the recovery phase. Hematology, coagulation, and serum chemistry parameters were monitored on Weeks 13, 26, and 39 of the dosing phase and Week 4 or 5 of the recovery phase. Urinalyses were performed on Week 37 of the dosing phase and Week 3 or 4 of the recovery phase. […] At the end of the dosing or recovery period, dogs were euthanized and necropsied. After gross examination, selected organs were weighed, and a comprehensive set of tissues was collected and processed for microscopic examination.

[4] = test system: onychectomy in cats; assay: Onychectomy pain model in cats (Example 5); assay type: in vivo, cat; details: vs placebo
Excerpt: The objective of this pilot study was to validate that this model/pain scoring system can differentiate positive from negative control animals in controlling the pain and inflammation of onychectomy and to test the effectiveness of a single dose of grapiprant in controlling the pain and inflammation associated with onychectomy in cats.
Following an acclimation period of 7, 8, or 9 days, a total of 30 adult cats were randomly divided between three treatment groups with ten animals assigned to each group. All animals were randomly assigned to a given surgery day such that within each day, an equal number of cats was from each treatment group. Within each day, the order of surgery was also randomized. […]
Surgical Procedure. […] During surgical procedures, each animal was monitored for at least heart rate and respiratory rate. […] Following surgery, each animal was periodically monitored until full recovery. […] Extubation time (time zero=T0) was recorded as the end of surgery.
All study animals were scored for sedation and analgesia the following schedule in Table 10. […]
Analgesia scores were given at specified time points during the study. […] Analgesia was scored by the same assessor during the first 8 hours of the study. […]
Results. The cat was evaluated as the experimental unit. Differences between treatment groups were evaluated at alpha of 0.05. […]

[5] = Pharmacokinetics of capsule, suspension and tablets in dogs (Example 3); assay type: in vivo, dog; details: male dogs; for AUC(0-t) / AUC(0-inf) / Cmax / Tmax / half-life: dog, mean; for AUC(0-t): in vivo; for AUC(0-inf) / Cmax / Tmax / half-life: serum; for AUC0-∞/Dose / Cmax/Dose: dose-normalized mean
Protocol: The objective of this study was to compare the pharmacokinetic profile of several tablet formulations of grapiprant to capsule and aqueous methylcellulose suspension formulations of grapiprant with 20-mg doses. Appropriate amounts of the test article/excipient mixture were placed into gelatin capsules to provide each animal with 20 mg of grapiprant. As the grapiprant content in the excipient blend was 45% of the mixture weight, the total weight of the blend in each capsule was 0.0440 g. The weight tolerance was within ±0.005 g of the nominal capsule content weight.
For the aqueous suspensions (Group 2), the vehicle was 0.5% methyl cellulose (400 centipoise) in water. A 0.3-mg/mL suspension of grapiprant was prepared by adding grapiprant to a calibrated beaker and adding about 60-90% of the 0.5% aqueous methylcellulose to the beaker. A homogenizer was used to blend the material. A stir bar was added to the beaker, and the suspension was stirred for about 5 minutes. The stir bar was removed temporarily to adjust the volume with additional vehicle, and then the suspension was stirred for another 5 minutes before being transferred to a labeled dosing container. The formulation was continuously stirred at the time of dose administration.
Statistical analyses were conducted to determine differences in Cmax, Tmax, and AUCmax Values were normalized by mg/kg, and group means and standard deviations were calculated for numeric data. The actual administered doses ranged from 1.81 to 2.82 mg/kg, and averaged 2.2 mg/kg. No animal was found dead or deemed moribund during the study. All animals were normal at the scheduled observation time of 2 hours postdose.

[6] = Day 0, Group 1: single oral 20 mg API in capsule
[7] = Day 0, Group 2: single oral 2 mg/kg, 0.3 mg/mL methylcellulose suspension
[8] = Day 0, Group 1: 20 mg API in capsule
[9] = Day 0, Group 2: methylcellulose suspension

Question: Which percent bound ([1]; 200 ng/mL) does the source give for `CCc1nc2c(C)nc(C)cc2n1-c1ccc(CCNC(=O)NS(=O)(=O)c2ccc(C)cc2)cc1` [grapiprant, N-{2-[4-(2-ethyl-4,6-dimethyl-1H-imidazo[4,5-c]pyridin-1-yl)phenyl]ethyl}-N′-[(4-methylphenyl)sulfonyl]urea] here?
Answer: 95%

Question: What about the percent bound ([1]; 1000 ng/mL) of the same compound?
Answer: 92%

Question: What about the “effect on chronic inflammatory pain response” value [2] of the same compound?
Answer: reverses complete Freund's adjuvant-induced chronic inflammatory pain response

Question: What about the “decrease in mean albumin/globulin (A/G) ratio” value ([3]; 6 mg/kg, Week 39) of the same compound?
Answer: −16%

Question: And the histopathological finding ([3]; 50 mg/kg)?
Answer: mild regeneration of the mucosal epithelium of the ileum in one male

Question: What about the “decrease in mean serum albumin vs. control value” ([3]; 50 mg/kg, Weeks 26 and 39) of the same compound?
Answer: up to −14%

Question: What about the accumulation ([3]; 1, 6, and 50 mg/kg/day dosing regimen) of the same compound?
Answer: no accumulation of grapiprant was observed

Question: What about the “level with no observed adverse effects” value ([3]; Beagle dogs, oral once daily, nine months) of the same compound?
Answer: 6 mg/kg

Question: What about the “individual decrease in albumin vs. pre-study” value ([3]; dose-related trend, 1-50 mg/kg) of the same compound?
Answer: up to −41%

Question: And the “individual decrease in calcium” value ([3]; dose-related trend, 1-50 mg/kg)?
Answer: up to −18%

Question: What about the “individual decrease in total protein” value ([3]; dose-related trend, 1-50 mg/kg) of the same compound?
Answer: up to −30%

Question: What about the sedation scores ([4]; 20 mg tablet Formulation A34 about 30 minutes before onychectomy) of the same compound?
Answer: without an apparent effect on sedation scores

Question: And the analgesia scores ([4]; oral tablet about 30 minutes before onychectomy (grapiprant: 20 mg tablet Formulation A34, Day 0 only; Onsior: 6 mg, Days 0-2))?
Answer: decreased analgesia scores (reduced pain)

Question: And the AUC(0-t) [5, 6]?
Answer: 1580 ng·h/mL

Question: And the AUC(0-t) [5, 7]?
Answer: 1650 ng·h/mL

Question: And the AUC(0-inf) [5, 6]?
Answer: 1640 ng·h/mL

Question: And the Cmax [5, 6]?
Answer: 804 ng/mL

Question: And the Tmax [5, 6]?
Answer: 1.08 h

Question: What about the half-life [5, 6] of the same compound?
Answer: 5.5 h

Question: What about the AUC(0-inf) [5, 7] of the same compound?
Answer: 1870 ng·h/mL

Question: And the Cmax [5, 7]?
Answer: 751 ng/mL

Question: And the Tmax [5, 7]?
Answer: 0.786 h

Question: And the half-life [5, 7]?
Answer: 4.1 h

Question: And the “AUC0-∞/Dose” value [5, 8]?
Answer: 724 (hr*ng/mL)/(mg/kg)

Question: And the Cmax/Dose [5, 8]?
Answer: 359 (ng/mL)/(mg/kg)

Question: And the “AUC0-∞/Dose” value [5, 9]?
Answer: 937 (hr*ng/mL)/(mg/kg)

Question: And the Cmax/Dose [5, 9]?
Answer: 376 (ng/mL)/(mg/kg)
